The target in the assay is recombinant form of Glutaminase 1 (GAC) (Homo sapiens, UniProt O94925). As to the kind of experiment: Recombinant Enzyme Assay (GAC coupled to GDH, NADH absorbance, no preincubation). The format is biochemical. The note with it: no preincubation; read-out: GAC Delta N2 IC50 no preinc. Summed up:
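GAC (4 nM) in Tris-HCl pH 8.0 with 150 mM K2HPO4, EDTA, BSA, DTT, plus 4 units/ml GDH and 4 mM ADP, without preincubation. Absorbance at 340 nm was read kinetically for 15 min at 20° C. Slopes (mAU/min) were compared with DMSO-only and control-compound wells on the same plate.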
Regarding `Cc1ccccc1C(C)C(=O)Nc1nnc(CCSCCc2nnc(NC(=O)C(C)c3ccccc3C)s2)s1` (stereo not shown) [Compound 262], the IC50 was determined as 360 nM.

In the case of `C[C@H](NC(=O)OC(C)(C)C)C(=O)Nc1nnc(CCSCCc2nnc(NC(=O)[C@H](C)NC(=O)OC(C)(C)C)s2)s1` [Compound 49], the IC50 was 36000 nM.

With `NCCC(C(=O)Nc1nnc(CCSCCc2nnc(NC(=O)C(CN)c3ccccc3)s2)s1)c1ccccc1` (stereo not shown) [Compound 214], the IC50 was 820 nM.

As for `CC(C)(C)OC(=O)N1CCCC(CC(=O)Nc2nnc(CCCCc3nnc(NC(=O)CC4CCCN(C(=O)OC(C)(C)C)C4)s3)s2)C1` (stereo not shown) [Compound 115], the IC50 came out at 620 nM.

Take `NS(=O)(=O)c1ccc(CC(=O)Nc2nnc(CCSCCc3nnc(NC(=O)Cc4ccc(S(N)(=O)=O)cc4)s3)s2)cc1` [Compound 217]: the IC50 was 240 nM.

Regarding `CC(=O)NCC(C(=O)Nc1nnc(CCSCCc2nnc(NC(=O)C(CNC(C)=O)c3ccccc3)s2)s1)c1ccccc1` (stereo not shown) [Compound 232], the IC50 turned out to be 9800 nM.

Turning to `O=C(Cc1cccc(-n2ccnc2)c1)Nc1nnc(CCCCc2nnc(NC(=O)Cc3cccc(-n4ccnc4)c3)s2)s1` [Compound 363], the IC50 turned out to be 65 nM.

As to `CC(=O)OCC(C(=O)Nc1nnc(CCSCCc2nnc(NC(=O)C(COC(C)=O)c3ccccc3)s2)s1)c1ccccc1` (stereo not shown) [Compound 14], the IC50 worked out at 2800 nM.

For the compound `NS(=O)(=O)c1ccc(CC(=O)Nc2nnc(CCCCc3nnc(NC(=O)Cc4ccc(S(N)(=O)=O)cc4)s3)s2)cc1` [Compound 198], the IC50 was 180 nM.

As to `CC(C)[C@H](N)C(=O)Nc1nnc(CCSCCc2nnc(NC(=O)Cc3ccccc3)s2)s1` [Compound 32], the IC50 amounted to 7000 nM.

For the compound `O=C(Cc1ccccc1)Nc1nnc(CCSCCc2nnc(N(COC(=O)OCCCN3CCOCC3)C(=O)Cc3ccccc3)s2)s1` [Compound 27], the IC50 is > 50000 nM.

As to `O=C(Cc1ccccc1)Nc1nnc(CCCCc2nnc(NC(=O)[C@H]3CCCC[C@@H]3C(=O)c3ccccc3)s2)s1` [Compound 290], the IC50 turned out to be 800 nM.

Turning to `CC(O)(C(=O)Nc1nnc(CCSCCc2nnc(NC(=O)C(C)(O)C(F)(F)F)s2)s1)C(F)(F)F` (stereo not shown) [Compound 109], the IC50 is > 20000 nM.

On to `CC(C)(C)C(=O)OCN(C(=O)Cc1ccccc1)c1nnc(CCSCCc2nnc(NC(=O)Cc3ccccc3)s2)s1` [Compound 15], for which the IC50 is > 50000 nM.

On to `CC(C)(C)OC(=O)Nc1ccc(CC(=O)Nc2nnc(CCSCCc3nnc(NC(=O)Cc4ccc(NC(=O)OC(C)(C)C)cc4)s3)s2)cc1` [Compound 185], for which the IC50 was > 20000 nM.

On to `O=C(Cc1cccs1)Nc1nnc(CCSCCc2nnc(NC(=O)Cc3cccs3)s2)s1` [Compound 116], for which the IC50 turned out to be 240 nM.

As for `CC1(C(=O)Nc2nnc(CCSCCc3nnc(NC(=O)C4(C)CCCO4)s3)s2)CCCO1` (stereo not shown) [Compound 119], the IC50 was > 20000 nM.

Regarding `O=C(Nc1nnc(CCCCc2nnc(NC(=O)C(F)(F)c3ccccc3)s2)s1)C(F)(F)c1ccccc1` [Compound 303], the IC50 was > 20000 nM.

`CC(=O)OC(C)(C)C(=O)Nc1nnc(CCCCc2nnc(NC(=O)C(C)(C)OC(C)=O)s2)s1` [Compound 96]: the IC50 is > 20000 nM.

Regarding `Nc1nnc(CCCCc2nnc(NC(=O)C(CO)c3ccccc3)s2)s1` (stereo not shown) [Compound 227], the IC50 was determined as 9900 nM.

In the case of `COc1ccc(C(O)C(=O)Nc2nnc(CCCCc3nnc(NC(=O)C(O)c4ccc(OC)cc4)s3)s2)cc1` (stereo not shown) [Compound 320], the IC50 was 400 nM.

Regarding `CCC(C)C(=O)Nc1nnc(CCCCc2nnc(NC(=O)C(C)CC)s2)s1` (stereo not shown) [Compound 107], the IC50 turned out to be 4300 nM.

On to `O=C(Nc1nnc(CCCCc2nnc(NC(=O)C3(c4ccccc4)CC3)s2)s1)C1(c2ccccc2)CC1` [Compound 168], for which the IC50 stood at 1300 nM.

In the case of `N#Cc1cccc(CC(=O)Nc2nnc(CCSCCc3nnc(NC(=O)Cc4cccc(C#N)c4)s3)s2)c1` [Compound 155], the IC50 was determined as 270 nM.

Turning to `C[C@@H](O)C(=O)Nc1nnc(CCCCc2nnc(NC(=O)Cc3ccccc3)s2)s1` [Compound 322], the IC50 amounted to 2800 nM.
